Columns and labels:
TycA-S563A = TycA-S563A (Brevibacillus parabrevis, UniProt P09095, S563A); assay type: biochemical, Brevibacillus brevis; design: The T-domain mutant TycA-S563A was also subcloned into a pSU18 vector and heterologously expressed as a His6-fusion; made in house; host or cells: Escherichia coli BL21(DE3)
Description: (§1) Each (S)-α-phenylalanine, (R)-β-phenylalanine, and (2R,3S)-phenylisoserine substrate (at 1 mM) was separately incubated (31° C.) in 100-μL reactions containing 100 mM HEPES (pH 8.0), ATP (1 mM), MgCl2 (3 mM) and TycA or TycA-S563A (20 μg in 0.1-mL assays) to establish steady-state conditions relative to protein concentration and time. Under steady-state conditions, each (S)-α-phenylalanine, (R)-β-phenylalanine, and (2R,3S)-phenylisoserine substrate, at ten concentration intervals from 5 to 1000 μM (in duplicate), was separately incubated with TycA or TycA-S563A for 1 min at 31° C. The reactions were acid-quenched (pH 3 with 10% formic acid), and the biosynthetic products were quantified by LC-ESI-MRM mass spectrometry (Anderson and Hunter, 2006) on the LC-QP/ESI-MS/MS fitted with a C18 Ascentis Express column (2.5×50 mm, 2.7 μm) at 30° C. An aliquot (5 μL) of each sample was loaded onto the column and the analytes were eluted with the CoA-Elution Gradient (see procedures described above). The effluent from the chromatography column was directed to the mass spectrometer where the first quadrupole mass analyzer (in negative ion mode) was set to select for the molecular ion of a biosynthesized (S)-α-phenylalanine-AMP, (R)-β-phenylalanine-AMP, and (2R,3S)-phenylisoserine-AMP. […]

TycA = molecular target: T1, TycA (Brevibacillus parabrevis, UniProt P09095); assay type: biochemical, Brevibacillus brevis; conditions: ATP at apparent saturation
T1 construct: this wild-type tycA cDNA encoding the A-, T-, and E-domains was subcloned into a pSU18 vector; made in house; host or cells: Escherichia coli BL21(DE3)
T1 sequence (P09095 with tags, fused parts or gaps): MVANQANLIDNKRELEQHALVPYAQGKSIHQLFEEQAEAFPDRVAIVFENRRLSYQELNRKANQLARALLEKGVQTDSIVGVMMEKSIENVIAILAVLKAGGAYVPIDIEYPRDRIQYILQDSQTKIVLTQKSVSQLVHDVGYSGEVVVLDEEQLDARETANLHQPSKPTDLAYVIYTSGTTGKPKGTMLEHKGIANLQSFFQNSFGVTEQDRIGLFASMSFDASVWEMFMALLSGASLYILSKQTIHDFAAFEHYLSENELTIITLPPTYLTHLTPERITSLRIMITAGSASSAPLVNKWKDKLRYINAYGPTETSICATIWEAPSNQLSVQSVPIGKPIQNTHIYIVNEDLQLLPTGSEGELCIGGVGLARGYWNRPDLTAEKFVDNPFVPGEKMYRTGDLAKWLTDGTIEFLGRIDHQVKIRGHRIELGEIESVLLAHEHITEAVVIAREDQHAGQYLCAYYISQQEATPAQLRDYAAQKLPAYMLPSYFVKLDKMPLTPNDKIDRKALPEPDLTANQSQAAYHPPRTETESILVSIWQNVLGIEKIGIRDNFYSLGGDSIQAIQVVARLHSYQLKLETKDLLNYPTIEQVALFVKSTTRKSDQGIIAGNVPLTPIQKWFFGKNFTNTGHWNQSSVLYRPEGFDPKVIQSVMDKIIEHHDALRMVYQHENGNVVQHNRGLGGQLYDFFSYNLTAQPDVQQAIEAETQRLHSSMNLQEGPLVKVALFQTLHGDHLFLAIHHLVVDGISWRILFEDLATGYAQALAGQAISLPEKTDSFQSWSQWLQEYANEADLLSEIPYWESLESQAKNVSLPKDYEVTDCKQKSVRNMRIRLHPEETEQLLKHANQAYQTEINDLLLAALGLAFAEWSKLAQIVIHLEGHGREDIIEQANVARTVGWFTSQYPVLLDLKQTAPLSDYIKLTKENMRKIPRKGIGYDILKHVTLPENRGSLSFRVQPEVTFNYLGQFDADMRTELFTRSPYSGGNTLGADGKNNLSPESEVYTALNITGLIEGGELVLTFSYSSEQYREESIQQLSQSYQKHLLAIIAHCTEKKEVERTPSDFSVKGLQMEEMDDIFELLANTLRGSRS
Description: as §1

Q: For `N[C@H](CC(=O)O)c1ccccc1` [(R)-β-Phe, (R)-β-phenylalanine], which “kcat^ATP/KM of TycA-S563A lower than the value for conversion to the CoA thioester” value (TycA-S563A) is on record?
A: about 46 fold

Q: What about the “kcat^ATP” value (TycA-S563A; acyl-AMP formation, ATP at apparent saturation) of the same molecule?
A: 0.001 ± 0.00017 s⁻¹

Q: What about the “kcat^ATP/KM of TycA lower than the value for conversion to the CoA thioester” value (TycA) of the same molecule?
A: ~15 fold

Q: And the “kcat^ATP” value (TycA; acyl-AMP formation)?
A: 0.00167 ± 0.00017 s⁻¹

— US20170342451A1, “BIOSYNTHESIS OF PACLITAXEL INTERMEDIATE” (Board of Trustees of Michigan State University, priority 2012, published 2017)
